Reference: patent US6572879B1, “Formulations for transdermal delivery of pergolide” (Alza Corporation, priority 1995, dated 2003)
Structures can show the parent of a compound that is named as a salt.

Assays:
[1] = In vitro flux of pergolide through human cadaver epidermis in diffusion cells at 35° C.; assay type: in vitro ADME; settings: 2% by weight in water donor, no permeation enhancer, over a period of 50 hours
Procedure: Several test samples were made to measure the flux of pergolide base and mesylate through human cadaver epidermis from donor vehicles containing the pergolide base or mesylate mixed with water alone, water and ethanol, or mineral oil alone as shown in Table 1. Transdermal fluxes were obtained using human epidermis at 35° C. in standard diffusion cells. FIGS. 5 and 6 graphically depict the results.
Circular pieces of human epidermis were placed with stratum corneum facing up. The release liner of the laminate was removed and the system was centered over the stratum corneum side of the epidermis. The edges of epidermis were then folded around the system. This assembly was then mounted on a Teflon rod. A known volume of receptor solution was then placed in a test tube and was equilibrated at 35° C. The Teflon rod with system and epidermis attached was then placed in a water bath at 35° C. Mixing was accomplished by attachment to a motor which caused constant vertical mixing.
At given time intervals, the entire receptor solution was removed from the test tubes and replaced with an equal volume of fresh receptor solutions previously equilibrated at 35° C. The receptor solutions are stored in capped vials at room temperature until assayed for pergolide content by HPLC. From the drug concentration and the volume of the receptor solutions, the area of permeation and the time interval, the flux of the drug through the epidermis was calculated as follows: (drug concentration X volume of receptor)/(area x time)=flux (μg/cm^2·hr).

[2] = Plasma terminal half-life of pergolide administered transdermally; assay type: in vivo; settings: human, topical or ocular

average baseline skin flux [1] | average baseline skin flux ([1]; listed as pergolide6mesylate) | half-life [2] | average baseline skin flux ([1]; listed as pergolide. base) | SMILES
approximately 1.1 μg/cm^2·hr | about 1.1 μg/cm^2·hr | – | – | CCCN1C[C@H](CSC)C[C@@H]2c3cccc4[nH]cc(c34)C[C@H]21 [pergolide mesylate, 8-[(methylthiolmethyl]6-propylergoline monomethanesulfonate)]
– | – | 5 to 10 h | – | CCCN1CC(CSC)C[C@@H]2c3cccc4[nH]cc(c34)C[C@H]21 (some centres unmarked) [pergolide, 8-[(methylthio)methyl]-6-propylergoline]
approximately 0.3 μg/cm^2·hr | – | – | about 0.3 μg/cm^2·hr | CCCN1CC(CSC)C[C@@H]2c3cccc4[nH]cc(c34)C[C@H]21 (some centres unmarked) [pergolide base, 8-[(methylthio)methyl]-6-propylergoline]
